Source: the supplement of paper PMC11451515

Assays:
Settings in all cases: 48 h
SEM cells [1] = experiment: AUC of viability dose-response curve (% viability x log10 dose units); higher = less sensitive
Outline: (§1)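 Library compounds in DMSO were applied for 48 h at 37°C at 11 threefold doses (47 μM to 0.79 nM) to medium-adapted leukemia cells in 1536-well plates holding 500 or 1000 cells/well. Luminescence from CellTiter-Glo One was normalised plate by plate against DMSO and cell-free wells. Area under the curve came from trapezoidal integration of a log-logistic fit, after scaling curves that rose above full viability and discarding those that failed quality control. The fit had four parameters and used log10 doses.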

NOMO1 [2] = experiment: as above
Outline: as §1

P12-Ichikawa [3] = experiment: as above
Outline: as §1

SEM cells [4] = experiment: cell viability relative to DMSO control; higher = less cytotoxic
Outline: (§2)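 NOMO1 or SEM (500 cells/well) or P12-Ichikawa (1000 cells/well) leukemia cells were adapted for at least four passages in each medium. They were seeded in 1536-well plates (5 μl) and pin-dosed with library compounds in DMSO over an 11-point threefold series, 47 μM to 0.79 nM. CellTiter-Glo One luminescence was read after 48 h at 37°C. Viability is the per-plate percentage relative to DMSO wells, with cell-free wells as background.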

NOMO1 [5] = experiment: as above
Outline: as §2

P12-Ichikawa [6] = experiment: as above
Outline: as §2

CC[S+](=O)([O-])Nc1ccc2c(c1)/C(=C(/Nc1ccc(CN3CCCCC3)cc1)c1ccccc1)C(=O)N2
AUC of viability dose-response curve
Settings	NOMO1 [2]	P12-Ichikawa [3]	SEM cells [1]
HPLM + 10% dialyzed FBS	335	276	223
RPMI 5 mM glucose + 10% FBS	314	274	232
RPMI 5 mM glucose + 10% dialyzed FBS	323	297	230

cell viability [%]
Settings	NOMO1 [5]	P12-Ichikawa [6]	SEM cells [4]
HPLM + 10% dialyzed FBS, 0.000781 µM	111	106	117
HPLM + 10% dialyzed FBS, 0.00234 µM	114	114	112
HPLM + 10% dialyzed FBS, 0.00702 µM	111	115	108
HPLM + 10% dialyzed FBS, 0.0211 µM	110	109	95.5
HPLM + 10% dialyzed FBS, 0.0632 µM	113	111	71.3
HPLM + 10% dialyzed FBS, 0.19 µM	85	12.9	27.8
HPLM + 10% dialyzed FBS, 0.569 µM	79.3	11.6	23.9
HPLM + 10% dialyzed FBS, 1.71 µM	59.1	18.7	19.4
HPLM + 10% dialyzed FBS, 5.12 µM	45.9	27.1	18.5
HPLM + 10% dialyzed FBS, 15.4 µM	33.8	54.3	5.02
HPLM + 10% dialyzed FBS, 46.1 µM	10.4	32.2	3.36
RPMI 5 mM glucose + 10% FBS, 0.000781 µM	104	127	110
RPMI 5 mM glucose + 10% FBS, 0.00234 µM	102	116	108
RPMI 5 mM glucose + 10% FBS, 0.00702 µM	111	120	111
RPMI 5 mM glucose + 10% FBS, 0.0211 µM	117	119	108
RPMI 5 mM glucose + 10% FBS, 0.0632 µM	99.3	114	89.1
RPMI 5 mM glucose + 10% FBS, 0.19 µM	49.3	14.3	17.9
RPMI 5 mM glucose + 10% FBS, 0.569 µM	47.5	17.4	18.1
RPMI 5 mM glucose + 10% FBS, 1.71 µM	53.1	30.7	13.8
RPMI 5 mM glucose + 10% FBS, 5.12 µM	47.6	35.3	10
RPMI 5 mM glucose + 10% FBS, 15.4 µM	39.9	51.4	3.47
RPMI 5 mM glucose + 10% FBS, 46.1 µM	18.5	21.4	2.27
RPMI 5 mM glucose + 10% dialyzed FBS, 0.000781 µM	99.2	123	118
RPMI 5 mM glucose + 10% dialyzed FBS, 0.00234 µM	102	117	110
RPMI 5 mM glucose + 10% dialyzed FBS, 0.00702 µM	121	121	126
RPMI 5 mM glucose + 10% dialyzed FBS, 0.0211 µM	101	118	103
RPMI 5 mM glucose + 10% dialyzed FBS, 0.0632 µM	104	121	89.7
RPMI 5 mM glucose + 10% dialyzed FBS, 0.19 µM	62	22.6	18.5
RPMI 5 mM glucose + 10% dialyzed FBS, 0.569 µM	63.8	25.8	16.3
RPMI 5 mM glucose + 10% dialyzed FBS, 1.71 µM	54.5	47.3	13.6
RPMI 5 mM glucose + 10% dialyzed FBS, 5.12 µM	44.6	52	11.5
RPMI 5 mM glucose + 10% dialyzed FBS, 15.4 µM	37.1	59.8	6.15
RPMI 5 mM glucose + 10% dialyzed FBS, 46.1 µM	18.2	18.8	2.34
